# Experimental data published in patent US20080234345A1, “METHOD FOR REDUCING OR ALLEVIATING INFLAMMATION IN THE DIGESTIVE TRACT” (Gene Logic Inc., priority 2006, published 2008).
# Columns and labels:
# Type in all cases: in vivo
# [1] = system: DSS-induced colitis in Balb/c mice; assay: DSS-induced histological effects in colon of Balb/c mice (Example 6)
# Description: A study was designed with five groups of Balb/c mice: naïve control, DSS followed by vehicle, DSS followed by dexamethasone 3 mg/kg/day, DSS followed by GL1001 10 mg/kg/day, and DSS followed by GL1001 100 mg/kg/day. Administration of DSS was via drinking water (DSS 5% in water), from day 0 to day 7 of the study. […] Administration of vehicle, dexamethasone and GL1001 was subcutaneous, once daily, from day 7 until termination of the study (day 14).
# At termination of the study, samples from proximal, transverse and distal portions of the colon of each animal were collected for histological analysis, which included: • (a) inflammation score (0-5), based on leukocyte infiltration in mucosa and submucosa, crypt abcess and edema; • (b) glandular score (0-5), based on crypt destruction (crypts function to produce mucin and generate epithelium); and • (c) erosion score (0-5), based on integrity of epithelium or degree of ulceration thereof. A total histopathological score was obtained by adding the scores from (a), (b) and (c) above.
# [2] = system: NF-κB dependent transcription; assay: LPS induced NF-κB dependent transcription in extracted organs of NF-κB::Luc mice (luciferase lysate assay); conditions: GL1001 30 mg/kg, LPS 0.5 mg/kg, vs LPS alone
# Source text: For luciferase assays, organs were extracted and snap frozen in liquid nitrogen. AII tissue samples were placed in lysis buffer with inhibitors (Passive Lysis Buffer (Promega) and Complete Mini Protease Inhibitor Cocktail (Roche, Indianapolis, Ind.)), and were homogenized using a tissue homogenizer (Handishear, Hand-held homogenizer, VirTis, Gardiner, N.Y.). Tissue homogenates were centrifuged and clarified lysates were used for luminometer assays and western blots. For the luminometer assays, Luciferase Assay Substrate (Luciferase Assay System, Promega) was prepared as indicated by the manufacturer and placed in disposable cuvettes. […] Background luminescence readings were obtained and the background readings were subtracted from the luminescent data. Protein concentrations were determined using the BCA Protein Assay Kit (Pierce, Rockford, Ill.) following the manufacturer's protocols and analyzed using a VERSAmax tunable microplate reader and associated Softmax Pro version 3.1.2 software (Molecular Devices, Sunnyvale Calif.). The luminescence for each of the protein lysates was calculated as arbitrary units of light per microgram of protein. […]
# GL1001 was further tested for in vivo anti-inflammatory activity by examining its effects on bacterial LPS induced NF-κB dependent transcription, in NF-κB::Luc mice. […] Luciferase signal was quantitated from several regions of interest. […]
# [3] = system: dextran sulfate sodium (DSS) induced colitis in mice; assay: DSS induced colitis in NF-κB::Luc mice (Example 5); conditions: 100 mg/kg s.c. per day
# Source text: GL1001 was further tested for in vivo anti-inflammatory activity by examining its effects on dextran sulfate sodium (DSS) induced colitis in mice. […] See, e.g., Hollenbach et al. (2004) FASEB J. 18(13):1550-1552. See also Bryne et al. (2006), Current Opinion in Drug Discovery & Development 8(2):207-217 and sources cited therein. These pathologies include predominant left-sided colonic inflammation, prominent regeneration of the colonic mucosa cells with dysplasia leading to colon cancer, shortening of the large intestine, focal crypt damage, and frequent lymphoid hyperplasia in both biological systems. Further, according to Hollenbach et al (2004), supra, DSS-induced colitis in mice has a high value in assessing the efficacy of therapeutic agents commonly used in the treatment of colitis, since all therapeutically beneficial substances in human IBD were also shown to reduce the disease activity in this mouse model.
# The study was designed with three groups: control (5 mice), 2.5% DSS alone (10 mice), and 2.5% DSS with GL1001 treatment (100 mg/kg subcutaneously per day) (10 mice). NF-κB::Luc mice were used to measure NF-κB activation as an indicator of inflammatory activity, as described above. In particular, organ specific luciferase activity was measured, in addition to body weight, fluid intake, occult fecal blood, organ weights and neutrophil infiltration (MPO assay). NF-κB::luc BL/6 albino background mice of 6-8 weeks of age were provided with 2.5% dextran sodium sulfate (DSS, MW 40,000; MP Biomedicals) in the drinking water. Mice were weighed, imaged and dosed with GL1001 daily. Fecal samples were collected from the bottom of the cages for each treatment group and tested for fecal consistency and occult blood using Hemocult Tape as directed by the manufacturer (Fisher Scientific) and fluid consumption was measured. At the conclusion of the study, the GI tract was removed, the various sections were cleaned and weighed, tissue samples were prepared for bioluminescent assays and myeloperoxidase (Myeloperoxidase assay kit, Cytostore) to look at neutrophil infiltration.
# The mice were weighed and imaged at the time of daily GL1001 or vehicle control administration. Biophotonic images of the mice were acquired each day, as described above, with quantitative abdominal imaging results shown in FIG. 7. […] Water consumption was monitored for all of the animals and similar consumption rates indicate that DSS treated mice were all receiving similar amounts of DSS (FIG. 8).
# Inflammatory bowel disease progression was monitored using an inflammatory bowel disease activity index which consists of the sum of percent weight loss, stool consistency and occult fecal blood divided by 3.
# [4] = GL1001 100 mg/kg/day s.c. once daily
smiles,measurement,setting,value
"CC(C)C[C@H](N[C@@H](Cc1cncn1Cc1cc(Cl)cc(Cl)c1)C(=O)O)C(=O)O [GL1001, (S,S)-2-[1-carboxy-2-[3-(3,5-dichlorobenzyl)-3H-imidazol-4-yl]-ethylamino]-4-methylpentanoic acid]",histological effect,[1]; GL1001 10 mg/kg/day s.c.,No significant histological effect
same,micrograph of distal colon section (FIG. 14),"[1]; GL1001 100 mg/kg s.c. once daily, one animal","Inflammation and gland loss are mild, and no erosion is seen"
same,"erosion score, distal colon",[1]; [4],significantly reduced
same,"glandular score, distal colon",[1]; [4],significantly reduced
same,"inflammation score, distal colon",[1]; [4],significantly reduced
same,"total histopathological score, distal colon",[1]; [4],significantly reduced
same,disease activity (based on fecal samples),"[1]; s.c. once daily day 7-14, dexamethasone 3 mg/kg/day, GL1001 10 and 100 mg/kg/day",No significant improvement
same,"LPS induced NF-κB signaling in pancreas and uterus, or any other organ analyzed",[2],no statistically significant decrease
same,reduction of LPS induced NF-κB-dependent transcription in stomachs,[2],about 37 fold
same,inflammatory bowel disease activity index,[3]; between days 3 and 8,slight delay
same,reduction in body weight,"[3]; between days 4 and 9, vs DSS only",significantly delayed
same,"NF-κB-driven luciferase expression, abdominal imaging, DSS only vs DSS+GL1001",[3]; from study day 6,non-statistically significant divergence
same,DSS induced organ weight increases (organ weight/body weight ratio),[3]; cecum and large intestine (colon),completely prevented
